In ChEMBL document CHEMBL1155750, “Four new coumarin derivatives from Artemisia keiskeana” (J Nat Prod, 2001):
Values after ≈ are worked out from the molar mass of the structure shown.

Key:
[1] = system: Artemia; assay: Toxicity in brine shrimp at 100 ug/mL; format: organism-based; conditions: in vivo
[2] = Toxicity in brine shrimp; format: organism-based; conditions: artemia, in vivo

Structure (SMILES)	Activity [1]	LC50 [2] [µg/mL]
COc1cc2ccc(=O)oc2c(OC)c1OC/C=C(\C)CC/C=C(/C)CO [ARTEKEISKEANOL D]	Non-toxic	
COc1cc2ccc(=O)oc2c(OC)c1OC/C=C(\C)CC/C=C(\C)CO [ARTEKEISKEANOL C]	Non-toxic	
COc1cc2ccc(=O)oc2cc1OC/C=C(\C)CC/C=C(/C)CO [ARTEKEISKEANOL B]		70 (≈ 203 µM)
COc1cc2ccc(=O)oc2cc1OC/C=C(\C)CC/C=C(\C)CO [ARTEKEISKEANOL A]		60 (≈ 174 µM)
